For this assay, the target named is T1, epithelial sodium channel (ENaC) (Homo sapiens, UniProt P37088+P51168+P51170).
T1 construct: host or cells: primary human bronchial epithelial cells (HBECs), differentiated at air-liquid interface
T1 sequence (P37088 1-669): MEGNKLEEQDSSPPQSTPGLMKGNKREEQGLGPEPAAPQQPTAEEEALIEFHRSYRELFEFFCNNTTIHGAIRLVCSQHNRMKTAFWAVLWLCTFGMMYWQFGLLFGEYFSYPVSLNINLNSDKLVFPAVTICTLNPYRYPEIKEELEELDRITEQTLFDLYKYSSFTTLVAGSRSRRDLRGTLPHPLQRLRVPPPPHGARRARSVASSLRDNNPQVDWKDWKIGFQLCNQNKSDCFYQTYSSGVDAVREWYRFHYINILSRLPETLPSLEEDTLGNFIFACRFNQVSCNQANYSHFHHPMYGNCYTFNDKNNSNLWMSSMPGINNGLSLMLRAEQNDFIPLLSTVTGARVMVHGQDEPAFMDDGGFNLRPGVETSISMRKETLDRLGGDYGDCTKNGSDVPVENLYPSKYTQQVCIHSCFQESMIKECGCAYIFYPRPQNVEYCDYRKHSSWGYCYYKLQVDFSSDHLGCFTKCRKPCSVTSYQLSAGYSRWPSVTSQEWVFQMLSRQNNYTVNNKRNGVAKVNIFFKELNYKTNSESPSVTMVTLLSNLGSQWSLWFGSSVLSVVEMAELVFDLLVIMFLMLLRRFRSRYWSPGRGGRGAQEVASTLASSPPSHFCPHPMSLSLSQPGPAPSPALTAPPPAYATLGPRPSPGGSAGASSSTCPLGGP
T1 sequence (P51168 1-640): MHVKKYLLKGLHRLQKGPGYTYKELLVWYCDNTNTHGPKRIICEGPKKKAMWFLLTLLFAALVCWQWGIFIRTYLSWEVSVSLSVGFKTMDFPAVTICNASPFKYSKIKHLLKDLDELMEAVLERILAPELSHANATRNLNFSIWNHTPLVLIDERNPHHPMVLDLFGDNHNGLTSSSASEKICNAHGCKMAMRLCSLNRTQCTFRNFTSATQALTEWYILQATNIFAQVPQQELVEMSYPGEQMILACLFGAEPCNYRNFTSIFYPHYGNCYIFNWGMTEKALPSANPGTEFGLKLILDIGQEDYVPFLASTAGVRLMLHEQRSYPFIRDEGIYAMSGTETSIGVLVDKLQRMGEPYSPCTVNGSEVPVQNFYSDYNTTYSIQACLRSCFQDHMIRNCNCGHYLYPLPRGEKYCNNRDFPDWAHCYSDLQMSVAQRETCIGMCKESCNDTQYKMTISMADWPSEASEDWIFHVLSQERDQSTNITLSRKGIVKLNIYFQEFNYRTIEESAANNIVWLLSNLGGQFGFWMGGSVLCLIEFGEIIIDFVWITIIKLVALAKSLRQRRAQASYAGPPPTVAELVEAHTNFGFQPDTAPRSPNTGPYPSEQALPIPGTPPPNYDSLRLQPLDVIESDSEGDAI
T1 sequence (P51170 1-649): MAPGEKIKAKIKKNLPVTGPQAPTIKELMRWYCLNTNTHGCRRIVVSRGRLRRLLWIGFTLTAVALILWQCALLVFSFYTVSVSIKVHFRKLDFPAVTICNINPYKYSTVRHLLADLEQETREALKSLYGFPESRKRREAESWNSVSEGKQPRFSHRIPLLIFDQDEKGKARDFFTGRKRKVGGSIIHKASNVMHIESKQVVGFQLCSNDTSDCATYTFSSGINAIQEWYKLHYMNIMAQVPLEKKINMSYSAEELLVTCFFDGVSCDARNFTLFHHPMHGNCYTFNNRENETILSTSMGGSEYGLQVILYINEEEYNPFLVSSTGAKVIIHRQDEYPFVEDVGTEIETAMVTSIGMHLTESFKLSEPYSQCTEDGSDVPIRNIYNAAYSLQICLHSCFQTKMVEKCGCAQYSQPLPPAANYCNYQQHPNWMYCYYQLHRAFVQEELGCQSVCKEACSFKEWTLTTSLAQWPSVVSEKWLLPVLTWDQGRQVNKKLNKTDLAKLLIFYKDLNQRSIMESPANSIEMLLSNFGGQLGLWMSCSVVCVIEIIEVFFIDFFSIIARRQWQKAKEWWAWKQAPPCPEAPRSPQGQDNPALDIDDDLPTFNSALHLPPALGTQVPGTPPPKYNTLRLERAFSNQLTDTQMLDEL
Nature of the assay: Short circuit current (ISC) measurements in human bronchial epithelial cells, inhibition of the amiloride-sensitive ISC. In kind it is cell-based. The note with it: air-liquid interface culture, Ussing chamber, compound added to the apical chamber. As for the experimental part: Compounds of formula (I) and their pharmaceutically acceptable salts, hereinafter referred to alternatively as “agents of the invention”, are useful as pharmaceuticals. In particular, the compounds have good ENaC blocker activity and may be tested in the following assays.
Human Bronchial Epithelial cells (HBECS) (Cambrex) were cultured under air-liquid interface conditions to provide a well differentiated mucociliary phenotype.
HBECs were cultured using a modification of the method described by Gray and colleagues (Gray et al., 1996). […]
Snapwell inserts were mounted in Vertical Diffusion Chambers (Costar) and were bathed with continuously gassed Ringer solution (5% CO2 in O2; pH 7.4) maintained at 37° C. containing (in mM): 120 NaCl, 25 NaHCO3, 3.3 KH2PO4, 0.8 K2HPO4, 1.2 CaCl2, 1.2 MgCl2, and 10 glucose. […] RT was measured by applying a 1- or 2-mV pulse at 30-s intervals and calculating RT by Ohm's law. Data were recorded using a PowerLab workstation (ADInstruments).
Test compounds were prepared as a 10 mM stock solution in DMSO (95%). […] At the completion of the concentration-response experiment, amiloride (10 μM) was added into the apical chamber to enable the total amiloride-sensitive current to be measured. […]
Results are expressed as the mean % inhibition of the amiloride-sensitive ISC. […] Cell inserts were typically run in duplicate and the IC50 calculated on the mean % inhibition data.

The structures appear in SMILES notation.

A word on the IC50: it is the concentration that inhibits the measured activity by half. Lower therefore signals inhibition by little substance. As to `N=C(NC(=O)c1nc(Cl)c(N)nc1N)N[C@H]1CC[C@H](NC(=N)NC(=O)c2nc(Cl)c(N)nc2N)CC1` [Example 5], inhibition was half-maximal at 0.2 nM (IC50).
To `N=C(NCC1CCC(CNC(=N)NC(=O)c2nc(Cl)c(N)nc2N)CC1)NC(=O)c1nc(Cl)c(N)nc1N` (centres unmarked) [Example 2] belongs 5.7 nM.

The values are drawn from patent US7803804B2, “Substituted pyrazines for use in the treatment of inflammatory or allergic conditions” (Novartis AG, priority 2005, dated 2010).
